Test results reported in EP0986381B1, “USE OF DITERPENES LIKE HYPOESTOXIDES FOR THE MANUFACTURE OF A MEDICAMENT FOR IMMUNOSUPPRESSION, ANTICANCER AND ANTIVIRAL TREATMENT” (Immune Modulation, Inc., priority 1997, dated 1998).

How the values were obtained:
[1] = tested on: IL-1β, TNF-α, and IL-6; assay: LPS-induced pro-inflammatory cytokine synthesis in PBMC, enzyme immunoassay; type: cell-based, human; details: 1 µg/mL JO-4, LPS-stimulated PBMC
Experimental: Human peripheral blood mononuclear cells (PBMC) were cultured with B-cell mitogen LPS (Gibco BRL, Grand Island, NY) 3 µg/mL) at 2 x 10^6/mL in 1.0 mL volumes in 24-well plates in the presence of either 1 µg/mL JO-4 or medium for 48 hr. In a 37°C incubator with 5% CO2. Culture supernatants were collected at the end of incubation period and were assayed by enzyme immunoassay for the presence of the cytokines: interleukin-1β,-6 and TNF-α. Results are expressed as inhibition of cytokine production.

[2] = tested on: one-way MLR-generated human T-lymphocyte-mediated cytolysis; assay: Cytolysis by CTLs generated in one-way MLR, 51Cr-release assay; type: cell-based; details: T-cell, 1.0 µg/mL JO-4 during 5-7 day one-way MLR, four hour 51Cr-release, read-out: inhibition of the lytic capability of cytotoxic T-cells
Description: The "one-way MLR" was set up in tissue culture flasks with mononuclear cells from two different donors as in the "two-way MLR" described above. However, in "one-way MLR", one of the two mononuclear leukocyte populations was rendered incapable of proliferation by treatment with mitomycin C, an antimitotic drug, prior to culture. In this "one-way MLR", the treated cells served exclusively as stimulators and the untreated cells, still capable of proliferation, served as the responders. The responder cells, during a 5-7 day culture period, expressed the CD8+ phenotype but not the CD4+. These CD8+ cells served exclusively as cytolytic T lymphocytes (CTLs) which lyse target cells from the same individual as the original stimulator cell population. In transplantation, these MHC-restricted cytotoxic CD8+ T-cells lyse MHC disparate donor tissue targets, leading to graft rejection (Abbas, A.K., eds., 1994, 2nd ed., Cellular and Molecular Immunology, W.B. Saunders Co., USA; Imagawa, D.K., et al., in Aggarwal, B.B., et al., eds., 1995, Human Cytokines: Their role in Disease and Therapy, Blackwell Science, Inc., Cambridge, MA).
Mononuclear cells of one donor were first treated with mitomycin C (Sigma Chem. Co., St. Louis, MO) (50 µg/50 x 10^6 cells) in 15 mL tubes wrapped in aluminum foil and incubated in a 37°C water bath for 1 hr. […]

[3] = tested on: Mouse spleen cells; assay: LPS-induced murine lymphocyte proliferation in vitro; type: cell-based; details: all concentrations tested (1.5 µg/mL-50 µg/mL); LPS 5 µg/ml, 48 hours
Experimental: LPS is a B-cell mitogen in mice and it is also known to induce pro-inflammatory cytokines such as TNF-α, IL-6 and IL-1β in both murine and human mononuclear cells (Cunningham, A.J., ed; Understanding Immunology 1978;Academic Press, Inc., New York, USA). Murine lymphocytes were stimulated with LPS in vitro in the absence or presence of varying concentrations of JO-4 (1.5, 2.5, 5.0, 10.0, and 50.0 µg/mL).

[4] = tested on: cultured normal human PBMCs; assay: Toxicity on PHA-activated normal human PBMCs, trypan blue dye exclusion; type: cell-based; details: 0.0001 µM - 0.5 µM, 7 days
Experimental: PBMCs from two individuals were co-cultured in the presence of varying concentrations of JO-4 for 5 days. […] Cytotoxic T lymphocytes (CTLs) were generated from one-way MLR in the absence or presence of JO-4 for 5-7 days. At the end of culture, CTLs were harvested and tested in a four hour ^51Cr-release assay against activated lymphocytes which were used as stimulators in the one-way MLR. […] Human PBMCs were cultured with 5 µg/ml LPS in the absence or presence of 1.0 µg/ml JO-4 in 24-well microtiter plates for 24 hours. At the end of culture, supernatants were harvested and tested by EIA for the presence of IL-1β, TNF-α, and IL-6. […] PBMCs from two individuals were co-cultured in the absence or presence of varying concentrations of JO-4A for 5 days. […] Antiviral effects of JO-4 on HSV-2 were determined as described in Figure 16A. • Figure 17A and 17B show the results of toxicity testing of JO-4 and JO-4A on normal, uninfected African green monkey kidney cells (CV-1), respectively. […] Cytotoxicity was determined by colorimetric (MTT) assay.
Peripheral Blood Mononuclear cells (PBMCs): Heparinized venous blood was obtained from healthy adult volunteers and PBMCs were separated by centrifugation over Ficoll-Hypaque (Pharmacia Biotech, Piscataway, NJ). […] Cell viability was assessed by trypan blue dye exclusion test and the cell number was adjusted to required concentration.

| SMILES | effect on pro-inflammatory cytokine synthesis [1] | inhibition at 1 µg/mL [2] [%] | inhibition of LPS-induced proliferation of murine lymphocytes [3] | toxic effect on cultured human PBMC [4] |
| --- | --- | --- | --- | --- |
| C=C1C(=O)C[C@H]2C[C@@H]3O[C@@]3(C)CC[C@@H]3O[C@@]3(C)C[C@@H](OC(C)=O)[C@H]1C2(C)C [JO-4, hypoestoxide] | inhibitory or immunosuppressant effect | 82 | more than 50% | – |
| C=C1C(=O)CC2CC3OC3(C)CCC3OC3(C)CC(O)C1C2(C)C (stereo not shown) [JO-4A] | – | – | – | no toxic effect |
